# Source: US20200080055A1, “COMPOSITIONS AND METHODS FOR GENERATING HAIR CELLS BY UPREGULATING PI3K” (Frequency Therapeutics, Inc., priority 2018, published 2020)
# Entries after “also recorded” stand apart in the source; their conditions may differ.
# Key:
# [1] = tested on: cochlear Lgr5 progenitor cells; test: Lgr5+ assay: expansion and enrichment of cochlear Lgr5 progenitor cells in 3D culture; format: cell-based, mouse
# Excerpt: “Stem Cell Proliferation Assay” as used herein is an assay to determine the capacity for agent(s) to induce the creation of stem cells from a starting cell population. In an exemplary Stem Cell Proliferation Assay, the number of cells for an initial cell population is harvested from a Lgr5-GFP mouse such as a B6.129P2-Lgr5tm1(cre/ERT2)Cle/J mouse (also known as Lgr5-EGFP-IRES-creERT2 or Lgr5-GFP mouse, Jackson Lab Stock No: 008875) between the age of 0 to 5 days, by isolating the organ of Corti sensory epithelium and dissociating the epithelium into single cells. Approximately 5000 cells are entrapped in 40 μl of culture substrate (for example: Matrigel (Corning, Growth Factor Reduced)) and placed at the center of wells in a 24-well plate with 500 μl of an appropriate culture media, growth factors and agent being tested. Appropriate culture media and growth factors include Advanced DMEM/F12 with media Supplements (1×N2, 1×B27, 2 mM Glutamax, 10 mM HEPES, 1 mM N-acetylcysteine, and 100 U/ml Penicillin/[…] Streptomycin) and growth factors (50 ng/ml EGF, 50 ng/ml bFGF, and 50 ng/ml IGF-1) as well as the agent(s) being assessed are added into each well. Cells are cultured for 10 days in a standard cell culture incubator at 37° C. and 5% CO2, with media change every 2 days. The number of Lgr5+ cells is quantified by counting the number of cells identified as Lgr5+ in an In Vitro Lgr5 activity assay. The fraction of cells that are Lgr5+ is quantified by dividing the number of cells identified as Lgr5+ in a cell population by the total number of cells present in the cell population. The number of hair cells in a population may be measured by staining with hair cell marker (e.g., MyosinVIIa), or using an endogenous reporter of hair cell genes (e.g., Pou4f3-GFP, Atoh1-nGFP) and analyzing using flow cytometry. The fraction of cells that are hair cells is quantified by dividing the number of cells identified as hair cells in a cell population by the total number of cells present in the cell population. Gene and/or protein expression and/or activity is measured in this assay using methods known in the art such as by PCR, Nanostring, immunostaining, RNAseq, RNA hybridization, or Western blot analysis.
# Neonatal Lgr5-EGFP-IRES-Cre-ER mice (The Jackson Laboratory, strain 8875) were used to analyze the effects of small molecules on cochlear stem cell expansion (see Barker et al., Nature 449, 1003-7 (2007). This strain allowed for visualization and quantification of EGFP cells.
# All animal studies were conducted under an approved institutional protocol per National Institutes of Health guidelines. Using neonatal animals, cochleae were dissected and the organ of Corti (sensory epithelium) was separated from the stria vascularis (ion transport epithelium) and the modiolus (nerve tissue). Epithelia were then collected and treated with TrypLE for 15-20 minutes to obtain single cells. The cells were then filtered ([…]) and suspended in a Matrigel (Corning) dome for 3D culture seeded at 0.5 cochlea per well.
# Expansion of Lgr5 Cells: Cells were cultured in a 3D system and bathed in a serum free 1:1 mixture of DMEM and F12, supplemented with Glutamax (GIBCO), N2, B27 (Invitrogen), EGF (50 ng/mL; Chemicon), bFGF (50 ng/mL; Chemicon), IGF-1 (50 ng/mL; Chemicon), and small molecules for seven days. Media was changed every other day. Treatments were run in triplicate or quadruplicate.
# Lgr5 cells were quantified after 7-10 days. Cell colonies were dissociated into single cells using TrypLE. The cells were then stained with propidium iodide (PI) and analyzed using a flow cytometer to count Lgr5-EGFP cells. The percentage of viable Lgr5 cells was plotted against the concentration in GraphPad Prism.
# Organ of Corti are dissected from Lgr5 GFP+ mice and dissociated as single cells as described above. Background media contains the same supplements and growth factors at the same concentrations as described above. […]
# HDAC = conditions: Table 5; cited from earlier work
compound,measurement,setting,value
CCn1cc(C(=O)O)c(=O)c2c(N)c(F)c(NC3CCCCC3)cc21 [AS1842856],enrichment of Lgr5 cells (percentage),[1]; AS1842856 425 nM combined with VPA 1 mM,enriched according to percentage
same,expansion of cochlear Lgr5+ progenitor cells in culture,[1]; AS1842856 425 nM in background of EFI,elicits the expansion
same,LGR5+ cell growth and enrichment / expansion of cochlear progenitor cells,[1]; AS1842856 concentration series in background of EFI,concentration-dependent effects; also recorded: enhances expansion of cochlear progenitor cells
Cc1c[nH]c(-c2cnc(NCCNc3ccc(C#N)cn3)nc2-c2ccc(Cl)cc2Cl)n1 [CHIR99021],expansion and enrichment of cochlear Lgr5 progenitor cells in culture,[1]; CHIR alone (GSK3 inhibition),elicits the expansion and enrichment
O=C([O-])CCCc1ccccc1.[Na+] [Na phenylbutyrate],Class selectivity,HDAC,Class I >
CC(C)(C)C(=O)Nc1ccc2c(c1)C(=O)C(=O)c1ccccc1-2 [SF1670],enhancement of CHIR-elicited expansion and enrichment of cochlear Lgr5 progenitor cells,[1]; SF1670 0.1 uM added to CHIR,further enhanced
VO-Ohpic,enhancement of CHIR-elicited expansion and enrichment of cochlear Lgr5 progenitor cells,[1]; VO-Ohpic 3 uM added to CHIR,enhanced
